Like-named read-outs stand apart in the source and are kept apart here.
Experiments:
[1] = tested on: HD (Q111/Q111) striatal cells; test: Western blot analysis of SETDB1 protein and H3K9me3 level in HD (Q111) cells; assay type: cell-based; details: HD (Q111) cell
Description: Cells were homogenised with Dounce homogeniser in […] of phosphate-buffered saline containing 0.4 mM sodium butyrate, 5% Triton X-100, 3 mM DTT, 1 mM sodium orthovanadate, 5 mM sodium fluoride, 3 mM PMSF, 3 mM DTT, 0.5 mg/ml leupeptin, and 10 mg/ml aprotinin as previously described. The nuclear pellets were collected and washed twice with the above-described 5% Triton buffer. Histones were extracted by solubilising in […] of 0.2 M HCl on a shaker for 2 h. After neutralising the pH of the acid-extracted solution containing the histone pool with ammonium acetate, the protein content was quantified. Each histone extract (an amount of […]) was placed onto each well of the dot blot apparatus pre-assembled with a nitrocellulose membrane and vacuumed for 30 min. After releasing the vacuum, the nitrocellulose membrane was removed and washed twice with TBS-T for 5 min. Then, the nitrocellulose membrane was blocked with 5% milk/TBS-T for 30 min and subsequently incubated with primary antibody in 5% milk/TBS-T for 24 h at cold room. The nitrocellulose membrane was washed twice with TBS-T for 5 min and incubated with secondary antibody in 1% milk (15 ml) for one hour at room temperature. After washing the membrane twice with TBS-T for 5 min, the immune reactivity was developed with Chemiluminescent Kit. […]

Q111 cells = test: FRET-based histone H3K9 methylation biosensor live cell imaging
Description: Fluorescence resonance energy transfer (FRET)-based histone H3K9 methylation biosensor was previously described. In brief, H3K9 biosensor is composed of a methyl-lysine binding domain of HP1 protein and a H3 tail peptide containing lysine9 between ECFP and YPet, and the NLS sequences were added in the C-terminal for the nucleus localisation of the biosensor. For the image acquisition, Q7 or Q111 cells were cultured on cover-glass-bottom dishes and the H3K9 biosensor was transfected into the cells using Lipofectamine 2000 (Invitrogen, Carlsbad, CA) according to the manufacturer’s protocols. Images were collected by a Nikon Ti-E inverted microscope with 420DF20 excitation filter, 450DRLP dichroic mirror, and two emission filters (475DF40 for ECFP and 535DF25 for YPet) controlled by a filter changer. Image analysis was performed using NIS element-AR software. Nucleus regions were selected as the regions of interests and the emission ratio of ECFP and YPet was calculated after background subtraction. The colour of each pixel was determined by the ECFP/YPet ratio value.
(§1) Moreover, the promoter assay was carried out.

SETDB1/ESET promoter = SETDB1/ESET promoter assay; assay type: cell-based; details: neuronal cells transfected with SETDB1 promoter construct, 0 to 20 µM
Description: STHdh^Q7/Q7 (wild type) and STHdh^Q111/Q111 (HD knock-in striatal cell line expresses mutant huntingtin at endogenous level) were generously provided from Dr. Marcy MacDonald (Harvard Medical School, Boston, MA)[35]. The SETDB1/ESET promoter assay was performed as previously described[24]^,[28]. Briefly, 2.5 × 10^5 cells were plated onto 48-well cell culture plates 24 h prior to the transfection of 200 ng of ETDB1/ESET promoter construct. DMRIE-C reagent (Invitrogen, Carlsbad, CA) was used as a transfection reagent and transfections were performed according to the manufacturer’s protocol. Nogalamycin and distamycin were purchased from Sigma-Aldrich (St. Louis, MO).
as §1

[2] = Pharmacokinetics after intravenous and oral administration to SD rats; assay type: in vivo, Sprague-Dawley (SD) male rats; details: rat, 10 mg/kg; for Kp at 2 h: brain/plasma, read-out: Brain-to-plasma (B/P) ratio at 2 h; for half-life: read-out: Terminal half-life
Source text: It is well known that the blood–brain barrier (BBB) is a key obstacle impeding the entry of drugs into the brain.

YAC128 mice [3] = test: Rotarod test in HD transgenic (YAC128) mice; assay type: in vivo, mouse; details: i.p. five times a week, after 4 weeks, vs vehicle treated YAC128 mice
Description: (§2) YAC128 mice were bred with females from their background strain (B6CBAFI/J), and offspring were genotyped using PCR as previously described. All mice were weighed at 3 weeks of age and equally distributed according to weight and percentage within each cohort. […] The biochemical and behavioural/neuropathological symptoms of mice were determined after 4 weeks of drug administration. These procedures were performed in accordance with Guide for the Care and Use of Laboratory Animals guidelines. The animal protocol was approved by IACUC (Institutional Animal Care and Use Committee) in Hanyang University, Ansan, Republic of Korea.

striatum of YAC128 mice = test: Histology and immunohistochemistry of the striatum of YAC128 mice (Nissl, H3K9me3, DARPP-32, calbindin, DAPI, SUV39H1); assay type: in vivo, mouse
Description: as §2
Immunofluorescence staining and confocal microscopy was used to determine the trimethylated-histone H3 (Lys9) (H3K9me3) (Millipore, Billerica, MA) (1:1000). The procedures were performed as previously described. The specimens were incubated for 1 h with Alexa Fluor 594 goat anti-rabbit antibody (abcam, Cambridge, UK; 1:400) after incubation of the primary antibody. Images were analysed using an A1 Nikon confocal laser scanning microscope (Nikon, Tokyo, Japan).
DARPP-32 is a dopamine- and cAMP-regulated neuronal phosphoprotein, which plays an important role in dopamine neurotransmission. Its expression is severely impaired in the striatum of YAC128 mice compared with that of WT mice.
White nodes are interacting genes with the seed genes identified by the network analysis algorithm of IPA. The network represented dense connections between the epigenome associated with chromatin modification (such as Suv39h1, Mecp2, KDM5c, etc.), transcription regulation (such as Elk1, Foxp4, Hoxa6, Dhx9, etc.), metabolic process (such as Acsl4, Fbp2, Nat2, etc.), and signal transduction pathways (such as Cnksr2, Dusp9, Rab9, etc.) (Figure 8(d)). Especially, SUV39H1, a histone H3K9 methyltransferase, was closely associated with signalling pathways and other modules (Figure 8(d)). We further verified that SUV39H1 immunoreactivity was markedly elevated in YAC128 mice (Figure 8(e)).

YAC128 mice [4] = test: Toxicity on administration to YAC128 mice; assay type: in vivo; details: HD transgenic (YAC128) mice
Description: as §2

[5] = male, Sprague-Dawley, plasma, intravenous
[6] = male, Sprague-Dawley, plasma, oral
[7] = male, Sprague-Dawley, intravenous, plasma
[8] = male, Sprague-Dawley, oral, plasma

C=CCOc1cccc2nc(N3CCCC3)ccc12 [APQ, 5-allyloxy-2-(pyrrolidin-1-yl)quinoline]
H3K9me3 level [1]: reduced
SETDB1 protein levels ([1]; dose-dependent): significantly decreased
FRET/ECFP ratios of H3K9 methylation (Q111 cells): effectively modulates
transcriptional activity of SETDB1 (promoter assay) (SETDB1/ESET promoter): represses the transcriptional activity of SETDB1 in a dose-dependent manner
Kp at 2 h ([2]; male, Sprague-Dawley, intravenous): 4.18
Kp at 2 h ([2]; male, Sprague-Dawley, oral): 0.44
concentration at 2 h ([2]; male, Sprague-Dawley, brain, intravenous, read-out: Brain concentration at 2 h): 407 ng/mL
concentration at 2 h ([2]; male, Sprague-Dawley, brain, oral, read-out: Brain concentration at 2 h): 3.7 ± 1.1 ng/mL
MRT [2, 5]: 1.6 h
clearance [2, 5]: 183 ± 26.1 mL/min/kg
concentration at 8 h [2, 5]: 20 ng/mL
concentration at 2 h ([2]; male, Sprague-Dawley, plasma, intravenous, read-out: Plasma concentration at 2 h): 100 ng/mL
half-life [2, 5]: 2.55 ± 0.101 h
Vd ([2]; male, Sprague-Dawley, plasma, intravenous, read-out: Vss): 25.6 ± 5.2 L/kg
bioavailability ([2]; male, Sprague-Dawley, plasma, oral vs intravenous, read-out: F (bioavailability)): 6.7%
Cmax [2, 6]: 40 ± 10 ng/mL
concentration at 8 h [2, 6]: 0 ng/mL
Tmax ([2]; male, Sprague-Dawley, plasma, oral, median (range)): 1 h
concentration at 2 h ([2]; male, Sprague-Dawley, plasma, oral, read-out: Plasma concentration at 2 h): 10 ng/mL
half-life [2, 6]: 1.58 ± 0.223 h
AUC(0-inf) [2, 7]: 923 ng·h/mL
AUC(0-t) [2, 7]: 858 ng·h/mL
AUC(0-inf) [2, 8]: 61.7 ng·h/mL
AUC(0-t) [2, 8]: 60.7 ng·h/mL
Ae (excreted amount) ([2]; intravenous): 0.00%
Brain concentration at 2 h ([2]; intravenous): 406.6 ± 81.3 ng/mL
Plasma concentration at 2 h ([2]; intravenous): 100 ± 10 ng/mL
Ae (excreted amount) ([2]; oral): 0.00%
motor behaviour (rotarod test) (YAC128 mice [3]): significantly improved
DARPP-32 expression in the striatum (striatum of YAC128 mice): considerably improved
immunoreactive intensity of calbindin stained neurons (striatum of YAC128 mice): increased
nuclei size of medium spiny neurons (DAPI) (striatum of YAC128 mice): restores
H3K9me3 immunoreactivity in striatal neurons (striatum of YAC128 mice; comparable to the level of WT controls): significantly reduced
level of SUV39H1 (immunoreactivity) in striatal neurons (striatum of YAC128 mice; similar to the level in WT mice): significantly reduced
neuronal atrophy / size of striatal medium spiny neurons (Nissl staining) (striatum of YAC128 mice; striatum): significantly restored
toxicity (YAC128 mice [4]): minimal toxicity

Source: paper PMC8008885 (Journal of Enzyme Inhibition and Medicinal Chemistry, 2021)
